# Test results as given in ChEMBL document CHEMBL5291721, “A preclinical secondary pharmacology resource illuminates target-adverse drug reaction associations of marketed drugs” (Nat Commun, 2023).
# Experiments:
# Mu-type opioid receptor = Mu-type opioid receptor (Homo sapiens, UniProt P35372)
# [1] = target: Vascular endothelial growth factor receptor 2 (Homo sapiens, UniProt P35968); type: functional
# Thromboxane A2 receptor = target: T1, Thromboxane A2 receptor (Homo sapiens, UniProt P21731); type: functional, cell-based
# T1 sequence (P21731 whole entry): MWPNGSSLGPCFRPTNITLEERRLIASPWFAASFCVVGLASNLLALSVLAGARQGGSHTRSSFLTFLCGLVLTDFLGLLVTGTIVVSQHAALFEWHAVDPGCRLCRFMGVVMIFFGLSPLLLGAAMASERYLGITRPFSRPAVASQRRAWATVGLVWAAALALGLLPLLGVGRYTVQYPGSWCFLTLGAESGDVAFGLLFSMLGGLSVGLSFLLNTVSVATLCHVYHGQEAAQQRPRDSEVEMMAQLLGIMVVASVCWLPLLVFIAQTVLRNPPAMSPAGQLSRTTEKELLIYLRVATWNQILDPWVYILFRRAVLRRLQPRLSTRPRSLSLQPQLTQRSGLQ
# [2] = target: T2, Alpha-1A adrenergic receptor (Homo sapiens, UniProt P35348); type: functional, cell-based
# T2 sequence (P35348 whole entry): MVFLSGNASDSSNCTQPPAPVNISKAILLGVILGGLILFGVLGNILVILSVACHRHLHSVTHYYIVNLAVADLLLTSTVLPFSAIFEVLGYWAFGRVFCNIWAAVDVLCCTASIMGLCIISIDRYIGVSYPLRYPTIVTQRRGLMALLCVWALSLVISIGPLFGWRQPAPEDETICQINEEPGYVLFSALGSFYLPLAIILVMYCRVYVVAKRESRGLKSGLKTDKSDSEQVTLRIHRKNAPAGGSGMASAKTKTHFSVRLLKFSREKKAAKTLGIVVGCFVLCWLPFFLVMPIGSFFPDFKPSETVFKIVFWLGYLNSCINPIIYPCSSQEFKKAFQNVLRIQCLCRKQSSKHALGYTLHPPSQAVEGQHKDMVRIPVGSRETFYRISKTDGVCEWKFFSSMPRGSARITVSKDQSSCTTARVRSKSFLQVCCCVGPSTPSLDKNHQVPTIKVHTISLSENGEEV
# [3] = target: Voltage-gated inwardly rectifying potassium channel KCNH2 (Homo sapiens, UniProt Q12809); type: functional; conditions: read-out: AC50
# Voltage-gated inwardly rectifying potassium channel KCNH2, sequence (Q12809 whole entry): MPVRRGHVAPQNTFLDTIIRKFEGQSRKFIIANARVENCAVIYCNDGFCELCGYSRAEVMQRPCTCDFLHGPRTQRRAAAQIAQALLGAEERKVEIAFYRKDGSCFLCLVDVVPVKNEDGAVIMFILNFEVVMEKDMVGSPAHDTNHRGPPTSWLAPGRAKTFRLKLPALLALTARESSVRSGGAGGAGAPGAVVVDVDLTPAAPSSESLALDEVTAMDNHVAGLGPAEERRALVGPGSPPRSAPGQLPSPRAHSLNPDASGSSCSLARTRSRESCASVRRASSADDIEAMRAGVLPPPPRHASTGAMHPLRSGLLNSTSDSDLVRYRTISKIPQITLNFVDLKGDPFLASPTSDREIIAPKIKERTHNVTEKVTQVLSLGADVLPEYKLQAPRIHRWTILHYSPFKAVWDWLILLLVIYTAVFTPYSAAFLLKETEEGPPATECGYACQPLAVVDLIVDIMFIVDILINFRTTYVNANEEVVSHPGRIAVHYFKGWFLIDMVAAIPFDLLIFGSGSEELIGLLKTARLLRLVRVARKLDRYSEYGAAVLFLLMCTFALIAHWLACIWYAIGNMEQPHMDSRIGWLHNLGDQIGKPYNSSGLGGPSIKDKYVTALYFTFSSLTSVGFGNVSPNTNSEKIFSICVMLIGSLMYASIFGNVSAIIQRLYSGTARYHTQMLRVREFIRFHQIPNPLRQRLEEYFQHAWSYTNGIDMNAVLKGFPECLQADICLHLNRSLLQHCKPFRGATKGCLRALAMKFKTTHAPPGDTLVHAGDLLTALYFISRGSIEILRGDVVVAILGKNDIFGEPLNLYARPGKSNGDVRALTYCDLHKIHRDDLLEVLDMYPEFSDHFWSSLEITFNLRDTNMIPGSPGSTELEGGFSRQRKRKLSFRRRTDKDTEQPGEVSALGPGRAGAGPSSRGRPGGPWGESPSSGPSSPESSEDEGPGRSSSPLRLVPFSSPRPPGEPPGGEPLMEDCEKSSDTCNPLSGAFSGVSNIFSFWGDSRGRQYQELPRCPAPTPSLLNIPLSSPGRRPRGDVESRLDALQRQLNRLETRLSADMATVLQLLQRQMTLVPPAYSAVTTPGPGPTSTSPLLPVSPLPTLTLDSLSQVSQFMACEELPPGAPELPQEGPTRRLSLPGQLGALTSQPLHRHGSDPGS
# D(3) dopamine receptor = D(3) dopamine receptor (Homo sapiens, UniProt P35462)
# D(3) dopamine receptor, sequence (P35462 whole entry): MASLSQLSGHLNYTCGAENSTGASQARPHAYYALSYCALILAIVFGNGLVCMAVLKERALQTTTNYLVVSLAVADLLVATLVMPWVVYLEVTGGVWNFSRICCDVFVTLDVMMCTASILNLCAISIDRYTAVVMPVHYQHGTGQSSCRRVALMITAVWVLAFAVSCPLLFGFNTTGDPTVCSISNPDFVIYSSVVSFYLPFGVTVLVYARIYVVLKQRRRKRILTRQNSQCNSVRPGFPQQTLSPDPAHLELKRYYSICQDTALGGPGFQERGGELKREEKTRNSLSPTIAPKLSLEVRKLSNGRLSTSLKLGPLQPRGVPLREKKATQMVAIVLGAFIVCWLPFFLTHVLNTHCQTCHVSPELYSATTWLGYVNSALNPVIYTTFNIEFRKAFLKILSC
# [4] = target: T3, Muscarinic acetylcholine receptor M2 (Homo sapiens, UniProt P08172)
# T3 sequence (P08172 whole entry): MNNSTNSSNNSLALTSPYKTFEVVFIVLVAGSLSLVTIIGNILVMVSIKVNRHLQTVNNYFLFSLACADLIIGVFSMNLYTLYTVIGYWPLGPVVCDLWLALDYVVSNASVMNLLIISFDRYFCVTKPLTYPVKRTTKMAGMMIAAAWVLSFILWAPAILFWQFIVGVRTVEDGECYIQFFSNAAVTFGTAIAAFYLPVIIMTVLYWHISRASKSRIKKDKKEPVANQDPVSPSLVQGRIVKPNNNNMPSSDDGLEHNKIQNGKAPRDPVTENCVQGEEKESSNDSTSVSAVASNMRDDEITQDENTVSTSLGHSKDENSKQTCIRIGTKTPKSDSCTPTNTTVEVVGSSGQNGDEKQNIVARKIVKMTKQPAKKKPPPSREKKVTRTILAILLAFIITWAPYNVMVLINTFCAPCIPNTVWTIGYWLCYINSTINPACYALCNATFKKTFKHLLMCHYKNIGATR
# Acetylcholinesterase = Acetylcholinesterase (Homo sapiens, UniProt P22303); type: functional
# Acetylcholinesterase, sequence (P22303 whole entry): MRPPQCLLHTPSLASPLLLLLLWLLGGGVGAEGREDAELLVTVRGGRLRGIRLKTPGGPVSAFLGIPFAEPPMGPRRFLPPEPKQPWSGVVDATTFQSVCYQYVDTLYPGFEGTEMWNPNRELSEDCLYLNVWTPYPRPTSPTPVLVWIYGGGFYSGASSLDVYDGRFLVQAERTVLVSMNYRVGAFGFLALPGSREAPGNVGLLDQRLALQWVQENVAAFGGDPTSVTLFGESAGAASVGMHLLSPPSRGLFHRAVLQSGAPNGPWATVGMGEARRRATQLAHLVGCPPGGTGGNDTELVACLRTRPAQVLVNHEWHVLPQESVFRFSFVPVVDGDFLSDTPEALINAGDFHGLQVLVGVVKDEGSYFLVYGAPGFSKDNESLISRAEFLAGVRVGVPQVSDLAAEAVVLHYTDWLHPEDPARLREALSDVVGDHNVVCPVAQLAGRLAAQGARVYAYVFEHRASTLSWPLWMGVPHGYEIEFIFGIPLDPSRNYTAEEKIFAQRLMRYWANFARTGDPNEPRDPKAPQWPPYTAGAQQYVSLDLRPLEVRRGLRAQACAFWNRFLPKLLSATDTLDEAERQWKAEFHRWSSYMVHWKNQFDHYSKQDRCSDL
# [5] = target: 5-hydroxytryptamine receptor 2B (Homo sapiens, UniProt P41595); type: functional, cell-based
# 5-hydroxytryptamine receptor 2B, sequence (P41595 whole entry): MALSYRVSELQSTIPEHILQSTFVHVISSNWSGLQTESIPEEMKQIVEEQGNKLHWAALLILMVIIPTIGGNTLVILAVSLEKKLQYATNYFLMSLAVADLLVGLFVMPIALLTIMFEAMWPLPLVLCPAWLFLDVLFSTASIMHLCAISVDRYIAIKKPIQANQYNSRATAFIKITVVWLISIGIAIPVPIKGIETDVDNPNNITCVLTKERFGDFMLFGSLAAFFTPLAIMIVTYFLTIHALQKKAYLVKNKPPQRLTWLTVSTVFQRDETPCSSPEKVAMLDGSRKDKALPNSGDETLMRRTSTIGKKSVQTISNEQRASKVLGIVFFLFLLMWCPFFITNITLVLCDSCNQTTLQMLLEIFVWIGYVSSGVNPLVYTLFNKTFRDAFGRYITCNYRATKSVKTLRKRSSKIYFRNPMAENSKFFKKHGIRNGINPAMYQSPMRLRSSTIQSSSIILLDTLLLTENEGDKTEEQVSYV
# D(1A) dopamine receptor = D(1A) dopamine receptor (Homo sapiens, UniProt P21728)
# D(1A) dopamine receptor, sequence (P21728 whole entry): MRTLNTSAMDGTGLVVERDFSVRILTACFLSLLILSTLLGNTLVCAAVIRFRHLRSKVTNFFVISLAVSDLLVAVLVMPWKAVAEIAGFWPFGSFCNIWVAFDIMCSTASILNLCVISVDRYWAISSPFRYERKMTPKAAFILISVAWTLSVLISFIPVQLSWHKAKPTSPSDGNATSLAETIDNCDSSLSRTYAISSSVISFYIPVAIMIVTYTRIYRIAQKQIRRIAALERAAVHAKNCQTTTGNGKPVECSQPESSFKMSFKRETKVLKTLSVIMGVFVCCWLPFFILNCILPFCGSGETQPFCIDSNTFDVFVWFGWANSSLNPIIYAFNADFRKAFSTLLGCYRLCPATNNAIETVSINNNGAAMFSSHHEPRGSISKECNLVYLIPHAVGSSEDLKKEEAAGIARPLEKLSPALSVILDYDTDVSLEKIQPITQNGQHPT
# [6] = target: T4, Muscarinic acetylcholine receptor M1 (Homo sapiens, UniProt P11229); type: functional, cell-based
# T4 sequence (P11229 whole entry): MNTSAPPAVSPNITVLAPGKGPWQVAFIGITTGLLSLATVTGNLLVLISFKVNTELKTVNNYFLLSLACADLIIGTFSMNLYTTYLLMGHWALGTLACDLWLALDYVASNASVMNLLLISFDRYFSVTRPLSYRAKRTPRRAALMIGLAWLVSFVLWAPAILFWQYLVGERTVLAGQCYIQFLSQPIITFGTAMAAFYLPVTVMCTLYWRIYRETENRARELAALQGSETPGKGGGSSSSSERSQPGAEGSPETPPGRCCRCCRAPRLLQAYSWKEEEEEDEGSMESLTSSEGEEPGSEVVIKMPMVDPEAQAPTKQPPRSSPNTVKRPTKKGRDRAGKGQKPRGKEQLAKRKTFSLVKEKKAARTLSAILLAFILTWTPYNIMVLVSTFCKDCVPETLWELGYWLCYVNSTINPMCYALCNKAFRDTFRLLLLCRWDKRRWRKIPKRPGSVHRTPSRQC
# Estrogen receptor = target: T5, Estrogen receptor (Homo sapiens, UniProt P03372)
# T5 sequence (P03372 whole entry): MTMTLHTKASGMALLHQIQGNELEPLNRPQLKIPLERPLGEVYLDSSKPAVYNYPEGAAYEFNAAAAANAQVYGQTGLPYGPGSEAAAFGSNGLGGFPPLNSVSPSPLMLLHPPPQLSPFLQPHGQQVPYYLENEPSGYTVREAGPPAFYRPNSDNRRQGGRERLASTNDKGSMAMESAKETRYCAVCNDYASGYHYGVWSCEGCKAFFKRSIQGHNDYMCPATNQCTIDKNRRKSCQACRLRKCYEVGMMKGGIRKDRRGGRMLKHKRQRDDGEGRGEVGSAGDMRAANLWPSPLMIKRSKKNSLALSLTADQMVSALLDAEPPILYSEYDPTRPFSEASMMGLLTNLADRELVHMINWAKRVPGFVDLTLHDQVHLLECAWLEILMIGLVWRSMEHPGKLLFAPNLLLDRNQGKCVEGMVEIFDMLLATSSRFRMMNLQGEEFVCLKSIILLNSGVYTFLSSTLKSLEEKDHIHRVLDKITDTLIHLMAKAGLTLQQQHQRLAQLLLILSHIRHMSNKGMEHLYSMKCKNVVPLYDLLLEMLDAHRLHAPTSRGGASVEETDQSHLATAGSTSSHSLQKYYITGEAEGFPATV
# Further: assay procedure not described here.
# Mu-type opioid receptor, sequence (P35372 whole entry): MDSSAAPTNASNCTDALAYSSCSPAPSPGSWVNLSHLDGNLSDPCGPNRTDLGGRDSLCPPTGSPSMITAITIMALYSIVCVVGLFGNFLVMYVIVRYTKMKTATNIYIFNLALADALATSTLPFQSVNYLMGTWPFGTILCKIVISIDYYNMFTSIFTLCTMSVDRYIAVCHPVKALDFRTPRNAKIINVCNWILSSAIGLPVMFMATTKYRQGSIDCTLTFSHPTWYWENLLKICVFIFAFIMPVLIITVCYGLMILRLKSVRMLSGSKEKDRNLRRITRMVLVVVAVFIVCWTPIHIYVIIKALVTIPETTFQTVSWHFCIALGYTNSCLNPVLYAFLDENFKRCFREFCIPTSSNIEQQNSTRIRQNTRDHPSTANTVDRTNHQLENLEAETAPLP
# Vascular endothelial growth factor receptor 2, sequence (P35968 whole entry): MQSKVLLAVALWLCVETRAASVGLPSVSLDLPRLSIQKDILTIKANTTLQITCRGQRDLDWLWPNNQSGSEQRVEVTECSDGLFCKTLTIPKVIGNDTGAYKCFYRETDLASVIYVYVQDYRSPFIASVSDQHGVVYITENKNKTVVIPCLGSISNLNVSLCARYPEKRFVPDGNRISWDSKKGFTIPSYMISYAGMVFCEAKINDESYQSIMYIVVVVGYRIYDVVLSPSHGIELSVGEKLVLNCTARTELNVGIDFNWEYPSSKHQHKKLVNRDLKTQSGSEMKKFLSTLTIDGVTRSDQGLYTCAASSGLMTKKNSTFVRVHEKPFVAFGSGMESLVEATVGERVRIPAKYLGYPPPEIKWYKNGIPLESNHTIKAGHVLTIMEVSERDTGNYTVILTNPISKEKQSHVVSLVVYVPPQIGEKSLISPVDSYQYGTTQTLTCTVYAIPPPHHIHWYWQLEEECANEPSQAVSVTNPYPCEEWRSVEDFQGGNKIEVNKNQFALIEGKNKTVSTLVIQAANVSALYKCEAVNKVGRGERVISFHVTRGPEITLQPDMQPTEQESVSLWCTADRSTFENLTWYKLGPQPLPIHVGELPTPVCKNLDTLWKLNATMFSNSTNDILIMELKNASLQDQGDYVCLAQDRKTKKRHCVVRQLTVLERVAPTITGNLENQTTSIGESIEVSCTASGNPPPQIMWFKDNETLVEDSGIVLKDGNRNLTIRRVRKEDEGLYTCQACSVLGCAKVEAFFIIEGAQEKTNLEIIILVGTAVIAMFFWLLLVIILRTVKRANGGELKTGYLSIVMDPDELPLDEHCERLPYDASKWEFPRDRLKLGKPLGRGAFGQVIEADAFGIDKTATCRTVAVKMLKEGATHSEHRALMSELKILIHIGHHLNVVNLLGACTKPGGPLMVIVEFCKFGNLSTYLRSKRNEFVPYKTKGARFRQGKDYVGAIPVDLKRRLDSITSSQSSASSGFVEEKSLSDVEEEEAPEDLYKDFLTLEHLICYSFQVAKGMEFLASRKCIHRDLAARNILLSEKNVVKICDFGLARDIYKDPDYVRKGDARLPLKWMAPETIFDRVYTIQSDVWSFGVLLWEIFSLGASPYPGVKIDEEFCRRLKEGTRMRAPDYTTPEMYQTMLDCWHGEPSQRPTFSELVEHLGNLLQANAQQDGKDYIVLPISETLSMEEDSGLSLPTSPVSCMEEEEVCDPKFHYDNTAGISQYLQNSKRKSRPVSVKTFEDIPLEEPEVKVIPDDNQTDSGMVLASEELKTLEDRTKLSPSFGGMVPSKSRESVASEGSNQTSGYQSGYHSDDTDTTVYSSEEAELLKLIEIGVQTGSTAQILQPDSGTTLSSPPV
Compound,AC50 (Mu-type opioid receptor),AC50 [1],AC50 (Thromboxane A2 receptor),AC50 [2],AC50 [3],AC50 (D(3) dopamine receptor),AC50 [4],AC50 (Acetylcholinesterase),AC50 [5],AC50 (D(1A) dopamine receptor),AC50 [6],AC50 (Estrogen receptor)
CC(C)(C)C(=O)OCOC(=O)[C@@H]1N2C(=O)[C@@H](NC(=O)[C@H](N)c3ccccc3)[C@H]2SC1(C)C [PIVAMPICILLIN],> 30 µM,> 30 µM,> 30 µM,> 30 µM,> 30 µM,> 30 µM,> 30 µM,> 30 µM,> 30 µM,> 30 µM,> 30 µM,> 30 µM
O=C(Nc1ccc(Cl)cc1)Nc1ccc(Cl)c(Cl)c1 [TRICLOCARBAN],4.85 µM,> 30 µM,> 30 µM,2.44 µM,> 30 µM,> 30 µM,> 30 µM,> 30 µM,> 30 µM,> 30 µM,> 30 µM,> 30 µM
CC[C@@H](C(N)=O)N1CCCC1=O,> 30 µM,> 30 µM,> 30 µM,> 30 µM,> 30 µM,> 30 µM,> 30 µM,> 30 µM,> 30 µM,> 30 µM,> 30 µM,> 30 µM
CC(C)(C)CC(C)(C)c1ccc(O)c(Cc2ccc(Cl)cc2Cl)c1 [CLOFOCTOL],22 µM,> 30 µM,> 30 µM,> 30 µM,11 µM,1.48 µM,> 10 µM,> 30 µM,> 30 µM,29.7 µM,> 30 µM,8.45 µM
NNc1nnc(NN)c2ccccc12 [DIHYDRALAZINE],25.6 µM,> 30 µM,> 30 µM,> 30 µM,0.44 µM,> 30 µM,> 30 µM,> 30 µM,> 30 µM,> 30 µM,> 30 µM,> 30 µM
CC(=O)c1ccc2c(c1)N(CCCN(C)C)c1ccccc1S2 [ACEPROMAZINE],2.42 µM,> 30 µM,> 30 µM,0.003 µM,2.5 µM,0.0087 µM,0.204 µM,> 30 µM,> 30 µM,0.0259 µM,> 30 µM,> 30 µM
Nc1ccc(S(=O)(=O)c2cnc(N)s2)cc1 [THIAZOLSULFONE],> 30 µM,> 30 µM,> 30 µM,> 30 µM,> 30 µM,> 30 µM,> 30 µM,> 30 µM,> 30 µM,> 30 µM,> 30 µM,> 30 µM
NC1CCN(c2c(F)cc3c(=O)c(C(=O)O)cn(C4CC4)c3c2Cl)C1 (stereo not given) [CLINAFLOXACIN],4.91 µM,> 30 µM,> 30 µM,> 30 µM,> 30 µM,> 30 µM,5.08 µM,> 30 µM,> 30 µM,> 30 µM,> 30 µM,> 30 µM
CC[C@H]1CN2CC[C@H]1C[C@H]2[C@H](O)c1ccnc2ccc(OC)cc12 [HYDROQUININE],8.13 µM,> 30 µM,> 30 µM,> 30 µM,10 µM,> 30 µM,23.4 µM,> 30 µM,> 30 µM,> 30 µM,> 30 µM,> 30 µM
CC(CNC(=O)c1ccccc1)C(=O)OCC(=O)[C@@]12OC(C)(C)O[C@@H]1C[C@H]1[C@@H]3CCC4=CC(=O)C=C[C@]4(C)[C@@]3(F)[C@@H](O)C[C@@]12C (stereo not given in full) [TRIAMCINOLONE BENETONIDE],> 30 µM,> 30 µM,> 30 µM,> 30 µM,> 30 µM,> 30 µM,> 30 µM,> 30 µM,> 30 µM,> 30 µM,> 30 µM,> 30 µM
N[C@H]1C(O)O[C@H](CO)[C@@H](O)[C@@H]1O (stereo not given in full) [GLUCOSAMINE],> 30 µM,> 30 µM,> 30 µM,> 30 µM,> 30 µM,> 30 µM,> 30 µM,> 30 µM,> 30 µM,> 30 µM,> 30 µM,> 30 µM
CC(=O)OCC(=O)[C@@]1(O)CC[C@H]2[C@@H]3CCC4=CC(=O)C=C[C@]4(C)[C@@]3(Cl)[C@@H](Cl)C[C@@]21C [DICHLORISONE ACETATE],> 30 µM,> 30 µM,> 30 µM,> 30 µM,> 30 µM,> 30 µM,> 30 µM,> 30 µM,> 30 µM,> 30 µM,> 30 µM,> 30 µM
CCOc1ccc(Cc2cc([C@@H]3O[C@H](CO)[C@@H](O)[C@H](O)[C@H]3O)ccc2Cl)cc1 [DAPAGLIFLOZIN],> 30 µM,> 30 µM,> 30 µM,> 30 µM,> 30 µM,> 30 µM,> 30 µM,> 30 µM,> 30 µM,> 30 µM,> 30 µM,> 30 µM
N=c1ccn2c(n1)O[C@H]1[C@H](O)[C@@H](CO)O[C@H]12 [ANCITABINE],> 30 µM,> 30 µM,> 30 µM,> 30 µM,> 30 µM,> 30 µM,> 30 µM,> 30 µM,> 30 µM,> 30 µM,> 30 µM,> 30 µM
CCOc1ccccc1C(N)=O [ETHENZAMIDE],> 30 µM,> 30 µM,> 30 µM,> 30 µM,> 30 µM,> 30 µM,> 30 µM,> 30 µM,> 30 µM,> 30 µM,> 30 µM,> 30 µM
